In this test the target is HLA A*3201 (Homo sapiens, UniProt P04439, A270S/D101S/D185E/E176V/E277Q/F133L/G103R/G107R/G231S/H175R/I121M/I218V/I322F/K168Q/L105A/L300P/L318F/M331R/P208A/P217A/Q94H/R106L/R138Q/S129P/T104I/T323A/T345S/V100E/V321M/V358M). Briefly: biochemical. The class given is binding.

Where a SMILES comes first, the peptide text is derived from it.

The IC50 is the concentration that inhibits the measured activity by half. A higher IC50 goes with a need for much substance. Take `CC[C@H](C)[C@H](NC(=O)CNC(=O)[C@@H](NC(=O)[C@H](C)NC(=O)[C@@H](NC(=O)[C@H](CCCNC(=N)N)NC(=O)[C@H](CCSC)NC(=O)[C@H](CC(C)C)NC(=O)[C@@H](N)CCSC)C(C)C)C(C)C)C(=O)O` [3102.0437] (H-MLMRVAVGI-OH): half-maximal inhibition (IC50) required 0.69 nM.
`CC(C)C[C@H](NC(=O)[C@H](CO)NC(=O)[C@H](CC(N)=O)NC(=O)[C@H](CCCNC(=N)N)NC(=O)[C@H](CC(C)C)NC(=O)CNC(=O)[C@H](Cc1ccc(O)cc1)NC(=O)[C@@H](NC(=O)[C@@H](N)CCCNC(=N)N)[C@@H](C)O)C(=O)O` [3102.0438] (H-RTYGLRNSL-OH) gave a concentration for half-maximal inhibition (IC50) of 0.63 nM.
The compound `CC[C@H](C)[C@H](NC(=O)CNC(=O)[C@H](CC(N)=O)NC(=O)[C@H](CO)NC(=O)[C@@H](NC(=O)CNC(=O)[C@H](CC(N)=O)NC(=O)[C@@H](NC(=O)CN)[C@@H](C)O)[C@@H](C)CC)C(=O)O` [3102.0439] (H-GTNGISNGI-OH) came in with an IC50 of 20 nM.
In turn, `CC[C@H](C)[C@H](NC(=O)[C@H](CCC(=O)O)NC(=O)[C@H](CS)NC(=O)[C@@H](NC(=O)[C@@H](N)CO)[C@@H](C)CC)C(=O)N[C@H](C(=O)N[C@@H](Cc1ccc(O)cc1)C(=O)N[C@@H](CO)C(=O)N[C@@H](Cc1ccccc1)C(=O)O)C(C)C` [3102.0440] (H-SICEIVYSF-OH) had an IC50 of 0.35 nM.
As to `CC[C@H](C)[C@H](N)C(=O)N[C@H](C(=O)N[C@@H](Cc1c[nH]c2ccccc12)C(=O)N[C@@H](CCCCN)C(=O)NCC(=O)N[C@H](C(=O)N[C@@H](Cc1ccc(O)cc1)C(=O)N[C@H](C(=O)N[C@@H](Cc1ccc(O)cc1)C(=O)O)[C@@H](C)O)[C@@H](C)CC)[C@@H](C)CC` [3102.0441] (H-IIWKGIYTY-OH), half-maximal inhibition (IC50) required 3.3 nM.
With `CC(C)C[C@H](NC(=O)[C@H](CO)NC(=O)[C@@H](N)CCCCN)C(=O)N[C@@H](CCCCN)C(=O)N[C@@H](CCCCN)C(=O)N[C@H](C(=O)N[C@@H](Cc1ccc(O)cc1)C(=O)N[C@H](C(=O)N[C@@H](Cc1ccccc1)C(=O)O)[C@@H](C)O)C(C)C` [3102.0442] (H-KSLKKVYTF-OH) the figure was 0.49 nM; with `CC[C@H](C)[C@H](NC(=O)[C@H](CO)NC(=O)[C@H](CCCCN)NC(=O)[C@H](Cc1ccccc1)NC(=O)[C@H](CC(C)C)NC(=O)[C@@H](NC(=O)[C@@H](N)CCSC)[C@@H](C)O)C(=O)N[C@@H](CC(C)C)C(=O)N[C@@H](Cc1ccccc1)C(=O)O` [3102.0443] (H-MTLFKSILF-OH), 11 nM; with `CC[C@H](C)[C@H](NC(=O)[C@H](CO)NC(=O)[C@H](C)NC(=O)[C@H](Cc1ccc(O)cc1)NC(=O)[C@@H](NC(=O)[C@H](CCC(=O)O)NC(=O)[C@H](CC(N)=O)NC(=O)[C@@H](NC(=O)[C@@H](N)CC(C)C)[C@@H](C)O)[C@@H](C)CC)C(=O)O` [3102.0445] (H-LTNEIYASI-OH), 13 nM.
`CC[C@H](C)[C@H](NC(=O)[C@H](CC(N)=O)NC(=O)[C@H](CCSC)NC(=O)[C@H](CCSC)NC(=O)[C@@H](N)Cc1ccc(O)cc1)C(=O)N[C@@H](Cc1ccc(O)cc1)C(=O)N[C@@H](CC(C)C)C(=O)N[C@@H](CC(N)=O)C(=O)N[C@@H](Cc1ccccc1)C(=O)O` [3102.0446] (H-YMMNIYLNF-OH) displayed an IC50 of 2.9 nM.
As for `CC[C@H](C)[C@H](NC(=O)[C@H](CCSC)NC(=O)[C@H](CC(=O)O)NC(=O)[C@H](CCSC)NC(=O)[C@@H](N)CC(C)C)C(=O)N[C@H](C(=O)N[C@@H](CC(C)C)C(=O)N[C@@H](CO)C(=O)N[C@@H](CC(C)C)C(=O)O)[C@@H](C)O` [3102.0448] (H-LMDMITLSL-OH), the IC50 was found to be 30 nM.
`CC[C@H](C)[C@H](NC(=O)[C@H](CO)NC(=O)[C@@H](NC(=O)[C@@H](NC(=O)[C@H](Cc1ccc(O)cc1)NC(=O)[C@H](CC(N)=O)NC(=O)[C@H](CO)NC(=O)[C@H](CC(C)C)NC(=O)[C@@H](N)Cc1c[nH]cn1)[C@@H](C)CC)C(C)C)C(=O)O` [3102.0449] (H-HLSNYIVSI-OH) returned a half-inhibitory concentration (IC50) of 0.99 nM.
As for `CC[C@H](C)[C@H](NC(=O)[C@@H](NC(=O)[C@H](CC(N)=O)NC(=O)[C@H](CO)NC(=O)[C@H](CC(N)=O)NC(=O)[C@H](C)NC(=O)[C@@H](NC(=O)[C@@H](NC(=O)[C@@H](N)CO)[C@@H](C)O)[C@@H](C)CC)[C@@H](C)CC)C(=O)O` [3102.0451] (H-STIANSNII-OH), 14 nM corresponded to half-maximal inhibition (IC50).
As for `CC[C@H](C)[C@H](NC(=O)[C@H](CO)NC(=O)[C@H](CC(C)C)NC(=O)[C@H](CO)NC(=O)[C@H](CCCNC(=N)N)NC(=O)[C@H](Cc1c[nH]c2ccccc12)NC(=O)[C@@H](NC(=O)[C@@H](NC(=O)[C@H](C)N)[C@@H](C)O)[C@@H](C)CC)C(=O)O` [3102.0452] (H-ATIWRSLSI-OH), the IC50 was 1.9 nM.
Compound `CC[C@H](C)[C@H](NC(=O)[C@H](CCC(N)=O)NC(=O)[C@H](CCC(=O)O)NC(=O)[C@H](CC(=O)O)NC(=O)[C@@H](NC(=O)[C@@H](N)CCSC)[C@@H](C)O)C(=O)N[C@@H](Cc1ccc(O)cc1)C(=O)N[C@@H](C)C(=O)N[C@@H](Cc1ccccc1)C(=O)O` [3102.0453] (H-MTDEQIYAF-OH) registered a 50% inhibitory concentration (IC50) of 18 nM.
With `CC[C@H](C)[C@H](NC(=O)[C@@H](NC(=O)[C@H](CC(C)C)NC(=O)[C@H](CC(C)C)NC(=O)[C@H](CC(N)=O)NC(=O)[C@H](Cc1ccc(O)cc1)NC(=O)[C@H](CCSC)NC(=O)[C@H](CC(C)C)NC(=O)[C@@H](N)CC(C)C)[C@@H](C)O)C(=O)O` [3102.0454] (H-LLMYNLLTI-OH), the IC50 is 72 nM.
On to `CC[C@H](C)[C@H](NC(=O)[C@@H](NC(=O)[C@@H](NC(=O)[C@H](CC(C)C)NC(=O)[C@H](CC(C)C)NC(=O)[C@H](CC(N)=O)NC(=O)[C@H](Cc1ccc(O)cc1)NC(=O)[C@H](CCSC)NC(=O)[C@@H](N)CC(C)C)[C@@H](C)O)[C@@H](C)CC)C(=O)O` [3102.0455] (H-LMYNLLTII-OH), for which the midpoint of inhibition, the IC50, lay at 30 nM.
With `CC[C@H](C)[C@H](NC(=O)[C@@H](N)CCCCN)C(=O)N[C@@H](CC(N)=O)C(=O)N[C@@H](CC(N)=O)C(=O)N[C@@H](Cc1ccccc1)C(=O)N[C@@H](C)C(=O)N[C@@H](CC(N)=O)C(=O)N[C@@H](CCC(=O)O)C(=O)N[C@@H](Cc1ccccc1)C(=O)O` [3102.0456] (H-KINNFANEF-OH) the figure was 2.1 nM; with `CC[C@H](C)[C@H](NC(=O)[C@@H](NC(=O)[C@@H](N)CCCCN)[C@@H](C)O)C(=O)N[C@@H](Cc1ccccc1)C(=O)N[C@@H](CC(C)C)C(=O)N[C@@H](CO)C(=O)N[C@@H](CCC(=O)O)C(=O)N1CCC[C@H]1C(=O)N[C@@H](Cc1ccc(O)cc1)C(=O)O` [3102.0457] (H-KTIFLSEPY-OH), 2.9 nM; with `CSCC[C@H](NC(=O)[C@@H](NC(=O)[C@@H](N)CCCCN)[C@@H](C)O)C(=O)N[C@@H](C)C(=O)N1CCC[C@H]1C(=O)N[C@H](C(=O)N[C@@H](Cc1c[nH]cn1)C(=O)N[C@H](C(=O)N[C@@H](Cc1ccc(O)cc1)C(=O)O)[C@@H](C)O)C(C)C` [3102.0458] (H-KTMAPVHTY-OH), 4.6 nM.
With `CC[C@H](C)[C@H](NC(=O)[C@H](Cc1ccc(O)cc1)NC(=O)[C@H](CC(C)C)NC(=O)[C@H](CO)NC(=O)[C@@H](N)CCCCN)C(=O)N[C@H](C(=O)N[C@@H](CC(N)=O)C(=O)N[C@H](C(=O)N[C@@H](CC(C)C)C(=O)O)[C@@H](C)O)[C@@H](C)O` [3102.0459] (H-KSLYITNTL-OH) the figure was 0.52 nM.
With `CC[C@H](C)[C@H](NC(=O)[C@H](CO)NC(=O)[C@H](CCSC)NC(=O)[C@H](CC(C)C)NC(=O)[C@@H](N)CCCNC(=N)N)C(=O)N[C@@H](CC(N)=O)C(=O)N[C@@H](CCCNC(=N)N)C(=O)NCC(=O)N[C@@H](Cc1ccccc1)C(=O)O` [3102.0465] (H-RLMSINRGF-OH) the figure was 3 nM; with `CC[C@H](C)[C@H](NC(=O)[C@H](Cc1ccc(O)cc1)NC(=O)[C@@H](NC(=O)[C@@H](NC(=O)[C@@H](NC(=O)[C@H](CCSC)NC(=O)[C@@H](NC(=O)[C@@H](N)CCCCN)[C@@H](C)O)[C@@H](C)O)[C@@H](C)O)C(C)C)C(=O)N[C@@H](CC(C)C)C(=O)O` [3102.0466] (H-KTMTTVYIL-OH), 14 nM; with `CC[C@H](C)[C@H](NC(=O)[C@@H]1CCCN1C(=O)[C@H](Cc1c[nH]cn1)NC(=O)[C@H](CC(N)=O)NC(=O)[C@@H](NC(=O)[C@H](CC(=O)O)NC(=O)[C@H](CCSC)NC(=O)[C@@H](NC(=O)[C@@H](N)CO)[C@@H](C)O)C(C)C)C(=O)O` [3102.0467] (H-STMDVNHPI-OH), 7.4 nM.
For `CC(C)C[C@H](NC(=O)[C@H](CO)NC(=O)[C@H](CC(C)C)NC(=O)[C@@H](NC(=O)[C@H](CC(C)C)NC(=O)[C@H](Cc1c[nH]cn1)NC(=O)[C@H](CC(N)=O)NC(=O)[C@H](CC(C)C)NC(=O)[C@H](C)N)C(C)C)C(=O)O` [3102.0469] (H-ALNHLVLSL-OH), half-maximal inhibition (IC50) was put at 41 nM.
In the case of `CC[C@H](C)[C@H](NC(=O)[C@H](CCC(=O)O)NC(=O)[C@@H](NC(=O)[C@@H](NC(=O)[C@H](CCC(=O)O)NC(=O)[C@H](CC(N)=O)NC(=O)[C@@H](NC(=O)[C@@H](N)CCCCN)[C@@H](C)CC)C(C)C)C(C)C)C(=O)N[C@@H](Cc1ccccc1)C(=O)O` [3102.0471] (H-KINEVVEIF-OH), the half-maximal inhibitory concentration (IC50) was 19 nM.
Compound `CC[C@H](C)[C@H](NC(=O)[C@@H](NC(=O)[C@@H](N)CCCCN)[C@@H](C)O)C(=O)N[C@@H](CC(N)=O)C(=O)N[C@@H](Cc1ccc(O)cc1)C(=O)N[C@@H](CO)C(=O)N[C@@H](Cc1ccccc1)C(=O)N[C@@H](Cc1ccccc1)C(=O)N[C@@H](CC(C)C)C(=O)O` [3102.0472] (H-KTINYSFFL-OH) registered an IC50 of 1 nM.
`CC[C@H](C)[C@H](NC(=O)[C@H](CO)NC(=O)[C@H](CC(C)C)NC(=O)[C@@H](NC(=O)[C@H](CO)NC(=O)[C@H](C)NC(=O)[C@H](CC(C)C)NC(=O)[C@@H](NC(=O)[C@@H](N)CCC(N)=O)[C@@H](C)CC)[C@@H](C)CC)C(=O)O` [3102.0474] (H-QILASILSI-OH) yielded an IC50 of 22 nM.
On to `CC[C@H](C)[C@H](NC(=O)CNC(=O)[C@H](CC(C)C)NC(=O)[C@@H](NC(=O)[C@H](CC(C)C)NC(=O)[C@H](Cc1ccc(O)cc1)NC(=O)[C@H](CCSC)NC(=O)[C@@H](NC(=O)[C@@H](N)CCSC)[C@@H](C)CC)C(C)C)C(=O)O` [3102.0477] (H-MIMYLVLGI-OH), for which the half-maximal inhibitory concentration (IC50) stood at 98 nM.

Source of the values: PMC2248166, “Quantitative peptide binding motifs for 19 human and mouse MHC class I molecules derived using positional scanning combinatorial peptide libraries” (Immunome Research, 2008).
